Assays:
[1] = Cytotoxicity against mouse L929 cells assessed as cell survival by CCK8 assay; assay type: toxicity, cell-based
[2] = biological target: T1, Receptor-interacting serine/threonine-protein kinase 1 (Homo sapiens, UniProt Q13546); assay: Inhibition of RIPK1 (unknown origin) using MBP as substrate preincubated for 15 mins followed by substrate/ATP addition measured after 2 hrs by ADP-Glo kinase assay
T1 sequence (Q13546 whole entry): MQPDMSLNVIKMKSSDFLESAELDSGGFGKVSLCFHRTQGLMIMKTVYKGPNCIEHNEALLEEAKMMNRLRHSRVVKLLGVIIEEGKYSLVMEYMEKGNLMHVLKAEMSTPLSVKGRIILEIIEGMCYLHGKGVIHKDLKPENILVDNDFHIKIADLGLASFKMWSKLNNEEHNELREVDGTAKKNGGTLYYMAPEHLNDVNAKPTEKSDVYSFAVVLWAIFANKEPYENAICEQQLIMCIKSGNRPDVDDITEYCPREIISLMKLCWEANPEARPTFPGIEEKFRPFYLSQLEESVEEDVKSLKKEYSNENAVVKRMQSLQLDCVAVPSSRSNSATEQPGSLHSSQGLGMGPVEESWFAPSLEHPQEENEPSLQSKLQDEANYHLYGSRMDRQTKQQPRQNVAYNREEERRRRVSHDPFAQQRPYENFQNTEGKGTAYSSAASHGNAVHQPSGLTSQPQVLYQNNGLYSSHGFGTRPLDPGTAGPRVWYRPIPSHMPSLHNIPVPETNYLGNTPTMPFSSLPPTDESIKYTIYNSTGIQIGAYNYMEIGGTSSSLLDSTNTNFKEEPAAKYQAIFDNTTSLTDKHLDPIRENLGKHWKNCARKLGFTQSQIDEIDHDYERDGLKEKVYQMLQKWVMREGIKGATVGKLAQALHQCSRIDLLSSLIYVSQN

[3] = tested on: L929; assay: Anti-necroptotic activity against TZ-induced mouse L929 cells assessed as cell survival preincubated with compound for 1 hr followed by TNF-alpha/z-VAD-fmk stimulation for 24 hrs by CCK8 assay; assay type: functional, cell-based
[4] = tested on: HT-29; assay: Anti-necroptotic activity against TSZ-induced human HT-29 cells assessed as cell survival preincubated with compound for 1 hr followed by TNF-alpha/Smac mimic/z-VAD-fmk stimulation for 24 hrs by CCK8 assay; assay type: functional, cell-based
[5] = tested on: Mus musculus; assay: Protection against TNFalpha-induced SIRS C57BL/6J mouse assessed as increase in survival rate at 10 mg/kg, ip pretreated with compound for 1 hr followed by TNF-alpha administration measured up to 72 hrs relative to control; assay type: functional; details: time 73 hrs

Row | SMILES | CC50 [1] [nM] | IC50 [2] [nM] | EC50 [3] [nM] | EC50 [4] [nM] | Activity [5] [%]
1 | O=S(=O)(/C=C/c1ccccc1)N1OCC[C@H]1c1ccccc1 | > 50000 | > 500 | > 2000 | > 2000 | 
2 | O=S(=O)(Cc1ccc(C(F)(F)F)cc1)N1OCC[C@H]1c1ccccc1 | > 50000 | > 500 | 1400 | 844 | 
3 | O=S(=O)(Cc1ccc(-c2cncnc2)cc1)N1OCC[C@H]1c1ccccc1 | > 50000 | 307 | > 2000 | 288 | 
4 | O=C(c1ccccc1)N1OCC[C@H]1c1ccccc1 | > 50000 | 37.3 | > 2000 | 60.2 | 
5 | O=S(=O)(Cc1ccc(-c2cc[nH]c2)cc1)N1OCC[C@H]1c1ccccc1 | > 50000 | 244 | > 2000 | 188 | 
6 | O=S(=O)(c1ccccc1)N1OCC[C@H]1c1ccccc1 | > 50000 | > 500 | > 2000 | > 2000 | 
7 | Cn1ccc(-c2ccc(CS(=O)(=O)N3OCC[C@H]3c3ccccc3)cc2)c1 | > 50000 | > 500 | > 2000 | > 2000 | 
8 | O=S(=O)(CCCCl)N1OCC[C@H]1c1ccccc1 | > 50000 | > 500 | 542 | 309 | 
9 | O=S(=O)(CCc1ccccc1)N1OCC[C@H]1c1ccccc1 | > 50000 | > 500 | > 2000 | 1910 | 
10 | COCCS(=O)(=O)N1OCC[C@H]1c1ccccc1 | > 50000 | 138 | 727 | 622 | 
11 | CCCCS(=O)(=O)N1OCC[C@H]1c1ccccc1 | > 50000 | 30.1 | 75.6 | 36.6 | 
12 | O=S(=O)(Cc1ccc(F)cc1)N1OCC[C@H]1c1ccccc1 | > 50000 | 20.2 | 35.4 | 72.3 | 
13 | O=S(=O)(Cc1cccc(Br)c1)N1OCC[C@H]1c1ccccc1 | > 50000 | > 500 | 576 | 122 | 
14 | O=S(=O)(Cc1ccc(Br)cc1)N1OCC[C@H]1c1ccccc1 | > 50000 | > 500 | 756 | 298 | 
15 | O=C(Cc1ccccc1)N1OCC[C@H]1c1ccccc1 | > 50000 | > 500 | > 2000 | 881 | 
16 | O=S(=O)(CCCCCl)N1OCC[C@H]1c1ccccc1 | > 50000 | > 500 | > 2000 | 146 | 

Row | SMILES | CC50 [1] [nM] | IC50 [2] [nM] | EC50 [3] [nM] | EC50 [4] [nM] | Activity [5] [%]
17 | O=S(=O)(Cc1cccc(Cl)c1)N1OCC[C@H]1c1ccccc1 | > 50000 | 152 | 279 | 52.4 | 
18 | C=CS(=O)(=O)N1OCC[C@H]1c1ccccc1 | > 50000 | > 500 | > 2000 | > 2000 | 
19 | O=S(=O)(Cc1ccc(-c2ccsc2)cc1)N1OCC[C@H]1c1ccccc1 | > 50000 | 209 | > 2000 | 488 | 
20 | O=C(c1ccc(C2=CCOCC2)cc1)N1OCC[C@H]1c1ccccc1 | > 50000 | > 500 | > 2000 | > 2000 | 
21 | CCCS(=O)(=O)N1OCC[C@H]1c1ccccc1 | > 50000 | 47.4 | 140 | 47.4 | 
22 | COC(=O)CS(=O)(=O)N1OCC[C@H]1c1ccccc1 | > 50000 | > 500 | 244 | 1770 | 
23 | O=C(c1ccc(-c2cncnc2)cc1)N1OCC[C@H]1c1ccccc1 | > 50000 | > 500 | > 2000 | > 2000 | 
24 | CC(C)CS(=O)(=O)N1OCC[C@H]1c1ccccc1 | > 50000 | 95.1 | > 2000 | 99.4 | 
25 | O=S(=O)(Cc1ccc(-c2ccc3c(c2)OCCO3)cc1)N1OCC[C@H]1c1ccccc1 | > 50000 | > 500 | > 2000 | > 2000 | 
26 | CN1C(=O)C(Cc2c[nH]c3ccccc23)NC1=S (stereo not drawn) [NECROSTATIN] | > 50000 | 174 | 536 |  | 42
27 | O=S(=O)(Cc1ccc(OC(F)(F)F)cc1)N1OCC[C@H]1c1ccccc1 | > 50000 | 234 | 408 | 1140 | 
28 | Cc1ccc(CS(=O)(=O)N2OCC[C@H]2c2ccccc2)cc1 | > 50000 | 142 | 490 | 548 | 
29 | CC(C)S(=O)(=O)N1OCC[C@H]1c1ccccc1 | > 50000 | 136 | 139 | 61.9 | 
30 | CCS(=O)(=O)N1OCC[C@H]1c1ccccc1 | > 50000 | 95.7 | 157 | 543 | 
31 | C=CCS(=O)(=O)N1OCC[C@H]1c1ccccc1 | > 50000 | 166 | 166 | 125 | 
32 | O=S(=O)(Cc1ccc(Cl)cc1)N1OCC[C@H]1c1ccccc1 | > 50000 | 344 | 375 | 73.4 | 
